From US8242113B2, “Oxazolidinone derivatives with cyclic amidoxime or cyclic amidrazone pharmaceutical compositions thereof” (Legochem Biosciences, Inc., priority 2008, dated 2012)
Values after ≈ are worked out from the molar mass of the structure shown.

How the values were obtained:
[1] = test system: methicillin-resistant Staphylococcus aureus (MRSA); assay: In vitro antibacterial activity, broth microdilution (MIC90); details: read-out: Antibacterial activity MIC90, MRSA
Text: (§1) MIC90 measurement was made according to the broth microdilution method based on the CLSI document [Clinical and Laboratory Standards Institute Document.
(§2) The test compounds in DMSO solution were further diluted 20-fold with sterile distilled water.

[2] = test system: linezolid- and vancomycin-resistant Enterococcus faecalis (LVRE); assay: as above; details: read-out: Antibacterial activity MIC90, LVRE
Text: as §1, §2

Structure (SMILES)	MIC90 [1]	MIC [2]
COC(=S)NC[C@H]1CN(c2ccc(N3C=NOCC3)c(F)c2)C(=O)O1 [Compound 57]	0.25 µg/mL (≈ 0.679 µM)	2 µg/mL (≈ 5.43 µM)
O=CN1CCN(c2c(F)cc(N3C[C@H](Cn4ccnn4)OC3=O)cc2F)C=N1 [Compound 103]	0.25 µg/mL (≈ 0.639 µM)	16 µg/mL (≈ 40.9 µM)
CCOC(=S)N1CCN(c2ccc(N3C[C@H](CNC(C)=O)OC3=O)cc2F)C=N1 [Compound 31]	1 µg/mL (≈ 2.36 µM)	8 µg/mL (≈ 18.9 µM)
CC(C)OC(=S)NC[C@H]1CN(c2ccc(N3C=NN(C=O)CC3)c(F)c2)C(=O)O1 [Compound 55]	2 µg/mL (≈ 4.72 µM)	8 µg/mL (≈ 18.9 µM)
C=C(Cl)CN1CCN(c2ccc(N3C[C@H](CNC(=S)OC)OC3=O)cc2F)C=N1 [Compound 66]	0.5 µg/mL (≈ 1.13 µM)	4 µg/mL (≈ 9.05 µM)
CC(=O)NC[C@H]1CN(c2ccc(N3C=NN(C(=O)CC#N)CC3)c(F)c2)C(=O)O1 [Compound 11]	1 µg/mL (≈ 2.49 µM)	8 µg/mL (≈ 19.9 µM)
CNC(=S)N1CCN(c2ccc(N3C[C@H](CNC(C)=O)OC3=O)cc2F)C=N1 [Compound 19]	0.5 µg/mL (≈ 1.22 µM)	4 µg/mL (≈ 9.79 µM)
C#CCN1CCN(c2ccc(N3C[C@H](CNC(=S)OC)OC3=O)cc2F)C=N1 [Compound 63]	0.5 µg/mL (≈ 1.23 µM)	4 µg/mL (≈ 9.87 µM)
CC(=O)NC[C@H]1CN(c2ccc(N3C=NN(C(=O)CO)CC3)c(F)c2)C(=O)O1 [Compound 12]	2 µg/mL (≈ 5.08 µM)	8 µg/mL (≈ 20.3 µM)
CC(=O)NC[C@H]1CN(c2ccc(N3C=NN(CC(C)O)CC3)c(F)c2)C(=O)O1 (stereo partly drawn) [Compound 38]	4 µg/mL (≈ 10.2 µM)	8 µg/mL (≈ 20.3 µM)
C#CCN1CCN(c2ccc(N3C[C@H](CNC(=S)C(F)F)OC3=O)cc2F)C=N1 [Compound 78]	0.5 µg/mL (≈ 1.18 µM)	4 µg/mL (≈ 9.4 µM)
O=C(NC[C@H]1CN(c2ccc(N3C=NNCC3)c(F)c2)C(=O)O1)C(F)F [Compound 46]	2 µg/mL (≈ 5.39 µM)	16 µg/mL (≈ 43.1 µM)
CCN1CCN(c2ccc(N3C[C@H](CNC(C)=O)OC3=O)cc2F)C=N1 [Compound 6]	2 µg/mL (≈ 5.5 µM)	8 µg/mL (≈ 22 µM)
CC(=O)NC[C@H]1CN(c2ccc(N3C=NN(C=O)CC3)c(F)c2)C(=O)O1 [Compound 1]	1 µg/mL (≈ 2.75 µM)	8 µg/mL (≈ 22 µM)
C#CCN1CCN(c2ccc(N3C[C@H](CNC(C)=O)OC3=O)cc2F)C=N1 [Compound 5]	1 µg/mL (≈ 2.68 µM)	8 µg/mL (≈ 21.4 µM)
CCOC(=O)CN1CCN(c2ccc(N3C[C@H](CNC(=S)OC)OC3=O)cc2F)C=N1 [Compound 69]	2 µg/mL (≈ 4.41 µM)	8 µg/mL (≈ 17.6 µM)
O=CN1CCN(c2ccc(N3C[C@H](CO)OC3=O)cc2F)C=N1 [Compound 92]	1 µg/mL (≈ 3.1 µM)	64 µg/mL (≈ 199 µM)
CCOC(=O)N1CCN(c2ccc(N3C[C@H](CNC(C)=O)OC3=O)cc2F)C=N1 [Compound 35]	2 µg/mL (≈ 4.91 µM)	8 µg/mL (≈ 19.6 µM)
COC(=S)NC[C@H]1CN(c2ccc(N3C=NN(C=O)CC3)cc2)C(=O)O1 [Compound 97]	0.5 µg/mL (≈ 1.32 µM)	8 µg/mL (≈ 21.2 µM)
CC(=O)NC[C@H]1CN(c2ccc(N3C=NN(C(=O)N(CCO)CCO)CC3)c(F)c2)C(=O)O1 [Compound 16]	128 µg/mL (≈ 274 µM)	> 128 µg/mL
C=CCN1CCN(c2ccc(N3C[C@H](CNC(=S)OC)OC3=O)cc2F)C=N1 [Compound 62]	0.0625 µg/mL (≈ 0.153 µM)	2 µg/mL (≈ 4.91 µM)
O=CN1CCN(c2ccc(N3C[C@H](Cn4ccnn4)OC3=O)cc2)C=N1 [Compound 99]	2 µg/mL (≈ 5.63 µM)	32 µg/mL (≈ 90.1 µM)
CC(=O)OCC(=O)N1CCN(c2ccc(N3C[C@H](CNc4ccon4)OC3=O)cc2F)C=N1 [Compound 88]	0.5 µg/mL (≈ 1.09 µM)	8 µg/mL (≈ 17.4 µM)
CC(=O)NC[C@H]1CN(c2ccc(N3C=NN(C)CC3)cc2)C(=O)O1 [Compound 96]	2 µg/mL (≈ 6.04 µM)	16 µg/mL (≈ 48.3 µM)
CC(=O)NC[C@H]1CN(c2ccc(N3C=NN(C(=O)NCCO)CC3)c(F)c2)C(=O)O1 [Compound 15]	4 µg/mL (≈ 9.47 µM)	8 µg/mL (≈ 18.9 µM)
CC(=O)NC[C@H]1CN(c2ccc(N3C=NN(S(C)(=O)=O)CC3)c(F)c2)C(=O)O1 [Compound 18]	4 µg/mL (≈ 9.68 µM)	16 µg/mL (≈ 38.7 µM)
CCN1CCN(c2ccc(N3C[C@H](CNC(=S)OC)OC3=O)cc2F)C=N1 [Compound 61]	0.5 µg/mL (≈ 1.26 µM)	4 µg/mL (≈ 10.1 µM)
